Patent publication US20050038058A1, “Novel compounds and methods for therapy” (Institute of Organic Chemistry and Biochemistry, priority 2001, published 2005)
Values after ≈ are worked out from the molar mass of the structure shown.

Tests used:
[1] = test system: HIV-1(IIIB); test: HIV-1(IIIB)-induced cytopathicity in CEM cell cultures; type: cell-based; conditions: for EC50: Human immunodeficiency virus 1, CCRF-CEM, read-out: EC50 HIV-1 (CEM)
From the text: Viruses. The origins of MSV, HIV type 1 (HIV-1) (strain IIIB and Ba-L), HIV-2 (strain ROD) and FIV (strain Petaluma) have been described previously (Balzarini et al., AIDS 5: 21-28, 1991; De Clercq et al., Proc. Soc. Exp. Biol. Med. 137:590-594, 1971; Egberink et al., Proc. Natl. Acad. Sci. 87:3087-3091, 1990; Hartmann et al., Antiviral Chem. Chemother. 5:13-19, 1994; Popovic et al., Science 224:497-500, 1984). HIV-1(IIIB) and HIV-2(ROD) stocks were obtained from supernatants of virus-infected MT-4 cell cultures. HIV-1BaL was expanded in human primary M/M, whose supernatants were collected, filtered and stored at −80° C. before use. Characteristics of viral stocks used for this study were 2.1×10^8 HIV-RNA genomes/ml (corresponding to 35 ng of p24 antigen) and 5,000 tissue culture infectious doses 50% per ml (TCID50/ml) as assessed by virus titration in other primary M/M cultures. The isolation and characterization of the clinical HIV-1 isolates L1S, L6S and L6S/PMEA has been reported (Thormar et al., Proc. Natl. Acad. Sci. USA 93:3283-3287, 1995; Van Laethem et al., AIDS 15:553-561, 2001). […] HIV-1/L6S/PMEA is the clinical isolate HIV-1/L6S that has been isolated after culturing the virus for 11 passages in the presence of increasing concentrations of PMEA (adefovir).
In vitro antiviral assays. The activity against HIV-1- and HIV-2-induced cytopathicity was examined in MT-4 cell cultures at day 5 post infection and based on the determination of cell viability by trypan blue dye staining or in CEM cell cultures at day 4 to 5 post infection and based on the microscopical examination of virus-induced giant cell formation. HIV-1 and HIV-2 were added at 100 CCID50 to the cell cultures.

[2] = Inhibition of CEM cell growth (cytostatic activity); type: cell-based; conditions: human, CEM cells, 50% cytostatic concentration, CEM cell proliferation; Table 1; read-out: CC50 (CEM)
Description: (§1) Cytostatic and antimetabolic effect of acyclic nucleoside phosphonates in vitro. The assays to examine the inhibition of CEM cell growth by the test compounds have been described previously (Balzarini et al., AIDS 5:21-28, 1991). The 50% cytostatic concentration (CC50) was defined as the concentration of compound that reduced the number of living cells by 50% . To measure MT-4 cell toxicity of the test compounds, 5×10^4 MT-4 cells were incubated in the wells of 96-well microplates in the presence or absence of different concentrations of the test compounds for 5 days at 37° C. The CC50 was then calculated from the number of living cells counted under a microscope by the trypan blue exclusion method.

[3] = test system: CEM cells; test: as above; type: cell-based; conditions: 50% cytostatic concentration, CEM cell proliferation; Table 1
Description: as §1

[4] = test system: HSV-1 (KOS); test: Antiviral activity, HSV-1 (KOS), Table 1a; type: cell-based; conditions: Human alphaherpesvirus 1
[5] = test system: HSV-2 (G); test: Antiviral activity, HSV-2 (G), Table 1a; type: cell-based; conditions: Human alphaherpesvirus 2
[6] = test system: HSV-1 TK- VMW 1837; test: Antiviral activity, HSV-1 TK- VMW 1837, Table 1a; type: cell-based; conditions: Human alphaherpesvirus 1, read-out: Antiviral Activity EC50 HSV-1 TK- VMW 1837
[7] = test system: CMV AD-169; test: Antiviral activity, CMV AD-169, Table 1a; type: cell-based; conditions: Human betaherpesvirus 5, AD169
[8] = test system: CMV Davis; test: Antiviral activity, CMV Davis, Table 1a; type: cell-based; conditions: Human betaherpesvirus 5
[9] = test system: VZV TK + OKA; test: Antiviral activity, VZV TK+ OKA, Table 1a; type: cell-based; conditions: Human alphaherpesvirus 3, read-out: Antiviral Activity EC50 VZV TK + OKA
[10] = test system: VZV TK + YS; test: Antiviral activity, VZV TK+ YS, Table 1a; type: cell-based; conditions: Human alphaherpesvirus 3
[11] = test system: VZV TK − 07/1; test: Antiviral activity, VZV TK- 07/1, Table 1a; type: cell-based; conditions: Human alphaherpesvirus 3, read-out: Antiviral Activity EC50 VZV TK − 07/1
[12] = test system: VZV TK − YS/R; test: Antiviral activity, VZV TK- YS/R, Table 1a; type: cell-based; conditions: Human alphaherpesvirus 3, read-out: Antiviral Activity EC50 VZV TK − YS/R
[13] = test system: MSV; test: Antiviral activity, MSV, Table 1a; type: cell-based
[14] = test system: HIV-2; test: Antiviral activity, HIV-2, Table 1a; type: cell-based; conditions: Human immunodeficiency virus 2
[15] = test system: HIV-1; test: microbe, parasite or virus in culture; conditions: Human immunodeficiency virus 1, read-out: Antiviral Activity EC50 HIV-1
[16] = HIV-1(IIIB)-induced cytopathicity in CEM cell cultures, Table 1

Q: What does the source list for Nc1cc(OCCOCP(=O)(O)O)ncn1 [Compound 3, 4-amino-6-[2-(phosphonomethoxy)ethoxy]pyrimidine]?
A: Antiretroviral (anti-HIV-1) activity in CEM cell cultures, in words [1]: complete annihilation of the antiretroviral activity; EC50 [1, 16]: > 100 µg/mL; CC50 [2]: > 100 µg/mL

Q: Which results are given for Nc1nc(O)cc(SCCOCP(=O)(O)O)n1 [Compound 5, 2-amino-4-hydroxy-6-{[2-(phosphono-methoxy)ethyl]sulfanyl}pyrimidine]?
A: Antiretroviral (anti-HIV-1) activity in CEM cell cultures, in words [1]: completely inactive; EC50 [1, 16]: > 100 µg/mL; CC50 [2]: > 100 µg/mL

Q: Which “Antiretroviral (anti-HIV-1) activity in CEM cell cultures, in words” value (“Antiretroviral (anti-HIV-1) activity” for short) [1] does the source give for CN(C)c1cc(OCCOCP(=O)(O)O)nc(N)n1 [Compound 6, 2-amino-4-dimethylamino-6-[2-(phosphonomethoxy)-ethoxy]pyrimidine] here?
A: complete annihilation of the antiretroviral activity

Q: And the EC50 [1, 16]?
A: > 100 µg/mL

Q: And the CC50 [2]?
A: > 100 µg/mL

Q: For Nc1nc(NC2CC2)cc(OCCOCP(=O)(O)O)n1 [Compound 7, 2-amino-4-cyclopropylamino-6-[2-(phosphonomethoxy)ethoxy]pyrimi-dine], which “Antiretroviral (anti-HIV-1) activity” value [1] is on record?
A: complete annihilation of the antiretroviral activity

Q: And the “EC50 HIV-1 (CEM)” value [1, 16]?
A: >100 µg/mL

Q: And the “CC50 (CEM)” value [3]?
A: >100 µg/mL

Q: Which “Antiretroviral (anti-HIV-1) activity” value [1] does the source give for CSc1nc(N)cc(OCCOCP(=O)(O)O)n1 [Compound 8, 4-amino-2-methylsulfanyl-6-[2-(phosphonomethoxy)ethoxy]pyrimidine] here?
A: complete annihilation of the antiretroviral activity

Q: And the EC50 [1, 16]?
A: > 100 µg/mL

Q: And the CC50 [2]?
A: > 100 µg/mL

Q: With Cc1cc(OCCOCP(=O)(O)O)nc(N)n1 [Compound 9, 2-amino-4-methyl-6-[2-(phosphonomethoxy)ethoxy]pyrimidine] as the compound, how does the “Antiretroviral (anti-HIV-1) activity” value [1] read?
A: complete annihilation of the antiretroviral activity

Q: What about the EC50 [1, 16] of the same compound?
A: > 100 µg/mL

Q: What about the CC50 [2] of the same compound?
A: > 100 µg/mL

Q: Which EC50 [4] does the source give for Nc1cc(OCCOCP(=O)(O)O)nc(N)n1 [Compound H-3404] here?
A: 6.5 µg/mL (≈ 24.6 µM)

Q: What about the EC50 [5] of the same compound?
A: 24 µg/mL (≈ 90.8 µM)

Q: And the EC50 [6]?
A: 9.6 µg/mL (≈ 36.3 µM)

Q: What about the EC50 [7] of the same compound?
A: > 50 µg/mL

Q: What about the EC50 [8] of the same compound?
A: > 50 µg/mL

Q: And the EC50 [9]?
A: 1.2 µg/mL

Q: And the EC50 [10]?
A: 1.1 µg/mL

Q: What about the EC50 [11] of the same compound?
A: 2.5 µg/mL (≈ 9.46 µM)

Q: What about the EC50 [12] of the same compound?
A: 1.6 µg/mL (≈ 6.06 µM)

Q: What about the EC50 [13] of the same compound?
A: 0.035 ± 0.002 µg/mL (≈ 0.132 µM)

Q: And the EC50 [14]?
A: 0.43 ± 0.32 µg/mL (≈ 1.63 µM)

Q: And the EC50 [15]?
A: 0.8 µg/mL (≈ 3.03 µM)

Q: For Nc1cc(SCCOCP(=O)(O)O)nc(N)n1 [Compound H-3408], which EC50 [4] is on record?
A: 29 µg/mL (≈ 103 µM)

Q: What about the EC50 [5] of the same compound?
A: ≥ 80 µg/mL

Q: What about the EC50 [6] of the same compound?
A: 48 µg/mL (≈ 171 µM)

Q: What about the EC50 [7] of the same compound?
A: > 50 µg/mL

Q: What about the EC50 [8] of the same compound?
A: > 50 µg/mL

Q: And the EC50 [9]?
A: 7.5 µg/mL

Q: And the EC50 [10]?
A: 7 µg/mL

Q: What about the EC50 [11] of the same compound?
A: 20 µg/mL (≈ 71.4 µM)

Q: And the EC50 [12]?
A: 15 µg/mL (≈ 53.5 µM)

Q: What about the EC50 [13] of the same compound?
A: 1.7 µg/mL (≈ 6.07 µM)

Q: And the EC50 [14]?
A: 3 ± 1.4 µg/mL (≈ 10.7 µM)

Q: And the EC50 [15]?
A: 5.5 ± 2.1 µg/mL (≈ 19.6 µM)
